This is an account of results in patent publication US8106055B2, “Substituted amide compounds” (Gruenenthal GmbH, priority 2007, dated 2012).

The target in assay [1] is T1, bradykinin 1 receptor (B1R) of the rat (Rattus norvegicus, UniProt P97583).
T1 construct: expressed in transfected cells; host or cells: CHO K1 cells
T1 sequence (P97583 1-337): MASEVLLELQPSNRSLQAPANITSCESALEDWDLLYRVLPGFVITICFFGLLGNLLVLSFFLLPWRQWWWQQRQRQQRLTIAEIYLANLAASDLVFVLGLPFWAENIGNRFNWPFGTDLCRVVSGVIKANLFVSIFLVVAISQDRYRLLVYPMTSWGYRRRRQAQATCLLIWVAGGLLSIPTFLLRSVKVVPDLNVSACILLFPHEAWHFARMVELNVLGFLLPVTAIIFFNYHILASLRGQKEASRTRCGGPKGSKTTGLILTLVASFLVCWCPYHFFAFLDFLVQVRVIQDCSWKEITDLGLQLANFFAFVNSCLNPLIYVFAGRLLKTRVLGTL
Description: Functional investigation on the rat bradykinin 1 receptor (B1R), Ca2+ FLIPR assay in CHO K1 rB1R cells. The assay is classed as cell-based. The note with it: B1R antagonism rat; test substance 10 μM; Ca2+ FLIPR, CHO K1 rB1R cells. The method in brief:
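Stably transfected CHO K1 cells loaded with Fluo-4; FLIPR Ca2+ fluorescence peak (ex 488/em 540 nm). Compound added first (agonism vs Lys-Des-Arg9-bradykinin ≥50 nM human, Des-Arg9-bradykinin 10 μM rat), then after 10-20 min agonist at EC80; antagonism as % inhibition, IC50 from concentration series, n=2-3, N≥2.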

Assay [2] concerns the target T2, serotonin (5-HT) reuptake (Rattus norvegicus, UniProt P31652).
T2 construct: synaptosomes are freshly isolated from areas of the rat brain; from tissue; host or cells: rat brain synaptosomes (P2 fraction)
Put plainly: Inhibition of serotonin (5HT) reuptake in synaptosomes from rat brain. The note with it: test concentration of 10 μM. It counts as biochemical. The procedure, abridged: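 Freshly isolated rat brain synaptosomes (P2 fraction) used for 5-HT reuptake. Test compound at 10 μM, activity given as % inhibition.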

T2 sequence (P31652 whole entry): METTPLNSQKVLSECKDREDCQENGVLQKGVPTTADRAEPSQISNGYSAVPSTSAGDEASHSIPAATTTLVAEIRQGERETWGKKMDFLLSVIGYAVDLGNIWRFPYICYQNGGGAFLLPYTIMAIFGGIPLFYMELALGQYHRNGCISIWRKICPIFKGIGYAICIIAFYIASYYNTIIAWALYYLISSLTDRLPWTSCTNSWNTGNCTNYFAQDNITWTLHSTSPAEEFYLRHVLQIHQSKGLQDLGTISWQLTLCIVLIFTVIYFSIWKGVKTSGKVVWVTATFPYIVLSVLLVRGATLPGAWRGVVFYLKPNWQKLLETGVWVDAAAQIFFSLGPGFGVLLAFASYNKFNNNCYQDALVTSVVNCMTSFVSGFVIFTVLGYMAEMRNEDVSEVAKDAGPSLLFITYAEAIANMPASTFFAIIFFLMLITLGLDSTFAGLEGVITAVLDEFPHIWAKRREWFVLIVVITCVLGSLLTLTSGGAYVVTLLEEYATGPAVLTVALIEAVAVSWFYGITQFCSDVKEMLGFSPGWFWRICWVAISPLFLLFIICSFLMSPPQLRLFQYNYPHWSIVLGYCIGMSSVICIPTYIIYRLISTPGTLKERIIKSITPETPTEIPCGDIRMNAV

For `CN(C)C(c1ccc(F)cc1)C1CCC(NC(=O)COC2CCCN(S(=O)(=O)c3ccccc3)C2)CC1` (stereo not shown) [Example 423], the “B1R Ant. r [10 μM] % Inhibition” value in assay [1] is reported as −20%. Moreover, the “5-HT (inhibition of reuptake of serotonin, % inhibition)” value in assay [2] worked out at 95%.

As to `CN(C)C(c1ccc(F)cc1)C1CCC(CNC(=O)COCC2CCCN(S(=O)(=O)c3ccccc3)C2)CC1` (stereo not shown) [Example 424], the “B1R Ant. r [10 μM] % Inhibition” value in assay [1] amounted to 20%. For the same compound, the “5-HT (inhibition of reuptake of serotonin, % inhibition)” value in assay [2] was 96%.

Regarding `CN(C)C(c1ccc(Cl)cc1)C1CCC(CCNC(=O)COCC2CCCN(S(=O)(=O)c3ccccc3)C2)CC1` (stereo not shown) [Example 425], the “B1R Ant. r [10 μM] % Inhibition” value in assay [1] came out at 30%. For the same compound, in assay [2], the “5-HT (inhibition of reuptake of serotonin, % inhibition)” value was 97%.

As to `CN(C)C(c1ccc(Cl)cc1)C1CCC(CCNC(=O)COCCN(Cc2ccccc2)S(=O)(=O)c2ccccc2)CC1` (stereo not shown) [Example 426], in assay [1], the “B1R Ant. r [10 μM] % Inhibition” value was 9%. In assay [2], the “5-HT (inhibition of reuptake of serotonin, % inhibition)” value stood at 95%.

For the compound `COc1cc(C)c(S(=O)(=O)N2CCC(OCC(=O)NCC3CCC(C(c4ccc(F)cc4)N(C)C)CC3)C2)c(C)c1C` (stereo not shown) [Example 427], the “B1R Ant. r [10 μM] % Inhibition” value in assay [1] is 8%. In addition, in assay [2], the “5-HT (inhibition of reuptake of serotonin, % inhibition)” value amounted to 94%.

With `COc1cc(C)c(S(=O)(=O)N2CCC(OCC(=O)NCC3CCC(C(c4ccc(Cl)cc4)N(C)C)CC3)C2)c(C)c1C` (stereo not shown) [Example 428], in assay [1], the “B1R Ant. r [10 μM] % Inhibition” value was 8%. In assay [2], the “5-HT (inhibition of reuptake of serotonin, % inhibition)” value turned out to be 88%.

Take `COc1cc(C)c(S(=O)(=O)N2CCN(CCOCC(=O)NCC3CCC(C(c4ccc(Cl)cc4)N(C)C)CC3)CC2)c(C)c1C` (stereo not shown) [Example 429]: the “B1R Ant. r [10 μM] % Inhibition” value in assay [1] is 13%. Besides, the “5-HT (inhibition of reuptake of serotonin, % inhibition)” value in assay [2] came out at 95%.

Consider `COc1ccc(S(=O)(=O)N2CCC(OCC(=O)NCCC3CCC(C(c4ccc(F)cc4)N(C)C)CC3)C2)cc1OC` (stereo not shown) [Example 430], for which the “B1R Ant. r [10 μM] % Inhibition” value in assay [1] is 21%. Also, the “5-HT (inhibition of reuptake of serotonin, % inhibition)” value in assay [2] was determined as 92%.

`CN(C)C(c1ccc(Cl)cc1)C1CCC(CCNC(=O)COC2CCN(S(=O)(=O)c3cccc(C(F)(F)F)c3)C2)CC1` (stereo not shown) [Example 431]: the “B1R Ant. r [10 μM] % Inhibition” value in assay [1] stood at 34%. The “5-HT (inhibition of reuptake of serotonin, % inhibition)” value in assay [2] was found to be 93%.

In the case of `Cc1cc(C)c(S(=O)(=O)N2CCC(OCC(=O)NCC3CCC(C(c4ccc(F)cc4)N(C)C)CC3)C2)c(C)c1` (stereo not shown) [Example 432], in assay [1], the “B1R Ant. r [10 μM] % Inhibition” value is 45%. In assay [2], the “5-HT (inhibition of reuptake of serotonin, % inhibition)” value stood at 82%.

`CN(C)C(c1ccc(F)cc1)C1CCC(CNC(=O)COCCN2CCN(S(=O)(=O)c3ccccc3)CC2)CC1` (stereo not shown) [Example 433]: in assay [1], the “B1R Ant. r [10 μM] % Inhibition” value was −12%. The “5-HT (inhibition of reuptake of serotonin, % inhibition)” value in assay [2] worked out at 95%.

As for `CCN(CCOCC(=O)NCCC1CCC(C(c2ccc(Cl)cc2)N(C)C)CC1)S(=O)(=O)c1c(C)cc(OC)c(C)c1C` (stereo not shown) [Example 434], the “B1R Ant. r [10 μM] % Inhibition” value in assay [1] is 58%. In assay [2], the “5-HT (inhibition of reuptake of serotonin, % inhibition)” value is 82%.

As for `COc1cc(C)c(S(=O)(=O)N2CCCC(OCC(=O)NC3CCC(C(c4ccc(F)cc4)N(C)C)CC3)C2)c(C)c1C` (stereo not shown) [Example 435], the “B1R Ant. r [10 μM] % Inhibition” value in assay [1] was found to be 14%. In assay [2], the “5-HT (inhibition of reuptake of serotonin, % inhibition)” value is recorded as 91%.

`COc1cc(C)c(S(=O)(=O)N(CCOCC(=O)NCCC2CCC(C(c3cccc(F)c3)N(C)C)CC2)Cc2ccccc2)c(C)c1C` (stereo not shown) [Example 436]: the “B1R Ant. r [10 μM] % Inhibition” value in assay [1] worked out at 10%. Moreover, the “5-HT (inhibition of reuptake of serotonin, % inhibition)” value in assay [2] is on record as 88%.

Consider `CN(C)C(c1ccc(F)cc1)C1CCC(NC(=O)COCCN(C)S(=O)(=O)c2cccc(C(F)(F)F)c2)CC1` (stereo not shown) [Example 438], for which the “B1R Ant. r [10 μM] % Inhibition” value in assay [1] is −10%. Also, the “5-HT (inhibition of reuptake of serotonin, % inhibition)” value in assay [2] is reported as 84%.

With `CN(C)C(c1ccc(F)cc1)C1CCC(CNC(=O)COCCN(C)S(=O)(=O)c2ccc(OC(F)(F)F)cc2)CC1` (stereo not shown) [Example 439], in assay [1], the “B1R Ant. r [10 μM] % Inhibition” value was found to be 16%. Besides, the “5-HT (inhibition of reuptake of serotonin, % inhibition)” value in assay [2] was 94%.

Take `CN(C)C(c1ccc(Cl)cc1)C1CCC(CCNC(=O)COC2CCN(S(=O)(=O)c3ccc(F)cc3)C2)CC1` (stereo not shown) [Example 440]: the “B1R Ant. r [10 μM] % Inhibition” value in assay [1] was found to be 31%. The “5-HT (inhibition of reuptake of serotonin, % inhibition)” value in assay [2] was determined as 95%.

On to `COc1cc(C)c(S(=O)(=O)N2CCC(OCC(=O)NC3CCC(C(c4ccc(F)cc4)N(C)C)CC3)C2)c(C)c1` (stereo not shown) [Example 441], for which the “B1R Ant. r [10 μM] % Inhibition” value in assay [1] came to 84%. Moreover, in assay [2], the “5-HT (inhibition of reuptake of serotonin, % inhibition)” value is 99%.

As for `CN(C)C(c1ccc(Cl)cc1)C1CCC(CCNC(=O)COCCN(C)S(=O)(=O)c2c(Cl)cc(Cl)cc2Cl)CC1` (stereo not shown) [Example 442], in assay [1], the “B1R Ant. r [10 μM] % Inhibition” value was 11%. Moreover, in assay [2], the “5-HT (inhibition of reuptake of serotonin, % inhibition)” value is reported as 91%.

`CN(C)C(c1ccc(Cl)cc1)C1CCC(CCNC(=O)COC2CCN(S(=O)(=O)c3ccccc3)CC2)CC1` (stereo not shown) [Example 443]: in assay [1], the “B1R Ant. r [10 μM] % Inhibition” value is listed as −1%. For the same compound, the “5-HT (inhibition of reuptake of serotonin, % inhibition)” value in assay [2] is recorded as 96%.

As to `CN(C)C(c1cccc(F)c1)C1CCC(CCNC(=O)COC2CCN(S(=O)(=O)c3ccccc3)CC2)CC1` (stereo not shown) [Example 444], the “B1R Ant. r [10 μM] % Inhibition” value in assay [1] is recorded as −5%. Besides, the “5-HT (inhibition of reuptake of serotonin, % inhibition)” value in assay [2] came out at 96%.

Take `CN(C)C(CCc1ccccc1)C1CCC(CNC(=O)COCCN(C)S(=O)(=O)c2ccc(Cl)cc2)CC1` (stereo not shown) [Example 445]: the “B1R Ant. r [10 μM] % Inhibition” value in assay [1] was 46%. In addition, the “5-HT (inhibition of reuptake of serotonin, % inhibition)” value in assay [2] turned out to be 87%.

As for `CN(C)C(c1ccc(F)cc1)C1CCC(CCNC(=O)COCCN(C)S(=O)(=O)c2ccc(OC(F)(F)F)cc2)CC1` (stereo not shown) [Example 446], the “B1R Ant. r [10 μM] % Inhibition” value in assay [1] is 33%. The “5-HT (inhibition of reuptake of serotonin, % inhibition)” value in assay [2] is reported as 90%.

With `Cc1ccc(S(=O)(=O)N2CCC(OCC(=O)NCC3CCC(C(c4ccc(F)cc4)N(C)C)CC3)C2)cc1` (stereo not shown) [Example 447], in assay [1], the “B1R Ant. r [10 μM] % Inhibition” value is 3%. The “5-HT (inhibition of reuptake of serotonin, % inhibition)” value in assay [2] stood at 95%.

As to `Cc1ccc(S(=O)(=O)N(C)CCOCC(=O)NC2CCC(C(c3ccc(F)cc3)N(C)C)CC2)cc1` (stereo not shown) [Example 448], the “B1R Ant. r [10 μM] % Inhibition” value in assay [1] is recorded as 12%. The “5-HT (inhibition of reuptake of serotonin, % inhibition)” value in assay [2] is recorded as 94%.

As to `COc1cc(C)c(S(=O)(=O)N2CCCC(OCC(=O)NCC3CCC(C(c4ccc(Cl)cc4)N(C)C)CC3)C2)c(C)c1C` (stereo not shown) [Example 449], in assay [1], the “B1R Ant. r [10 μM] % Inhibition” value is recorded as −7%. The “5-HT (inhibition of reuptake of serotonin, % inhibition)” value in assay [2] is reported as 73%.
